Results: PubChem BioAssay (NCI)
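Five concentrations, 48 hours, 96-well plates. GI50: concentration for 50% inhibition of growth. At the TGI there is no net growth.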 Where a SMILES comes first, the peptide text is derived from it. The star is where a group is joined. Boc = CC(C)(C)OC(=O)*

Key:
Test in all cases: DTP human tumour cell line panel, 48 h
[1] = system: NCI-H23 lung
[2] = system: SF-539 CNS
[3] = system: OVCAR-5 ovarian
[4] = system: OVCAR-8 ovarian
[5] = system: KM12 colon
[6] = system: SK-MEL-5 melanoma
[7] = system: OVCAR-3 ovarian
[8] = system: NCI-H460 lung
[9] = system: 786-0 renal
[10] = system: PC-3 prostate

Row | SMILES | TGI [1] | TGI [2] | TGI [3] | TGI [4] | TGI [5] | TGI [6] | TGI [7] | TGI [8] | TGI [9] | TGI [10] | GI50 [1] | GI50 [2] | GI50 [3] | GI50 [4] | GI50 [5] | GI50 [6] | GI50 [7] | GI50 [8] | GI50 [10]
1 | O=S(=O)(CCBr)CCBr | 18.7 µM | 18.6 µM | 26.7 µM | 5.68 µM | 30 µM | 19.8 µM | 12.3 µM | 29.9 µM | – | – | – | – | – | – | – | – | – | – | –
2 | CCCCCCCCOC1C(O)C(O)C(O)C(O)C12CO2 (stereo unspecified) | 31.3 µM | > 100 µM | – | > 100 µM | > 100 µM | – | > 100 µM | > 100 µM | > 100 µM | > 100 µM | – | – | – | – | – | – | – | – | –
3 | COc1cc2c(cc1OC)C(C(CO)CO)N(CC(O)CCl)CC2 (stereo unspecified) | > 100 µM | > 100 µM | > 100 µM | > 100 µM | > 100 µM | > 100 µM | > 100 µM | > 100 µM | > 100 µM | – | – | – | – | – | – | – | – | – | –
4 | CCOC(=O)c1cc(-c2cc(OC)c(OC)c([N+](=O)[O-])c2)c([N+](=O)[O-])n1C | > 10 µM | > 10 µM | > 10 µM | > 10 µM | > 10 µM | – | > 10 µM | > 10 µM | > 10 µM | – | – | – | – | – | – | – | – | – | –
5 | O=C(NCCC1([N+](=O)[O-])CCN(C(=O)c2ccccc2)CC1)c1ccccc1 | > 100 µM | > 100 µM | > 100 µM | > 100 µM | > 100 µM | > 100 µM | – | > 100 µM | > 100 µM | > 100 µM | – | – | – | – | – | – | – | – | –
6 | N#CC1=C(N)n2c(s/c(=C\c3ccc(Cl)cc3)c2=O)=C(c2nc3ccccc3[nH]2)C1c1ccc(Cl)cc1 (stereo unspecified) | 1.58 µM | 3.56 µM | 3.66 µM | 3.78 µM | 3.06 µM | 11.3 µM | 3.66 µM | 8.03 µM | 4.96 µM | – | – | – | – | – | – | – | – | – | –
7 | O=CN1CCN(C(=O)c2ccc(Cl)cc2Cl)C1=S | > 100 µM | > 100 µM | > 100 µM | > 100 µM | > 100 µM | – | > 100 µM | > 100 µM | > 100 µM | > 100 µM | – | – | – | – | – | – | – | – | –
8 | O=C(/N=C/c1c(O)c2ccccc2oc1=O)Nc1ccccc1 | > 100 µM | > 100 µM | > 100 µM | > 100 µM | > 100 µM | > 100 µM | > 100 µM | > 100 µM | > 100 µM | – | – | – | – | – | – | – | – | – | –
9 | CCCCc1ccc(Nc2nc3c(ncn3C3CC(O)C(CN=[N+]=[N-])O3)c(=O)[nH]2)cc1 (stereo unspecified) | > 100 µM | – | > 100 µM | > 100 µM | > 100 µM | > 100 µM | > 100 µM | > 100 µM | > 100 µM | > 100 µM | – | – | – | – | – | – | – | – | –
10 | CC[C@H](O)[C@H](C)C=C1SCCCS1 | > 100 µM | – | > 100 µM | > 100 µM | > 100 µM | > 100 µM | > 100 µM | – | > 100 µM | > 100 µM | – | – | – | – | – | – | – | – | –
11 | Cc1c(Cl)c2ccccc2n1S(=O)(=O)c1ccccc1 | > 100 µM | > 100 µM | > 100 µM | > 100 µM | > 100 µM | > 100 µM | > 100 µM | > 100 µM | > 100 µM | – | – | – | – | – | – | – | – | – | –
12 | COc1ccc(-c2cc(=O)c3cc4c(cc3[nH]2)OCO4)cc1OC | > 100 µM | > 100 µM | – | > 100 µM | > 100 µM | > 100 µM | > 100 µM | > 100 µM | > 100 µM | – | – | – | – | – | – | – | – | – | –
13 | COC(=O)C1=C(C(=O)OC)C(C(=O)c2ccc(Br)cc2)N2N=C(c3ccc(Cl)cc3)C=CC12 (stereo unspecified) | > 100 µM | – | > 100 µM | > 100 µM | > 100 µM | > 100 µM | > 100 µM | > 100 µM | > 100 µM | > 100 µM | – | – | – | – | – | – | – | – | –
14 | O=C(Nc1cccc(-n2ccc3c(NC(=O)c4ccccc4)nccc32)c1)Nc1cc(C(F)(F)F)cc(C(F)(F)F)c1 | > 50 µM | 4.76 µM | > 50 µM | 5.14 µM | 4.7 µM | 1.95 µM | 3.18 µM | > 50 µM | – | > 50 µM | 1.96 µM | 1.39 µM | 1.71 µM | 1.65 µM | 1.53 µM | 0.946 µM | 1.28 µM | 1.7 µM | 1.58 µM
15 | Nn1c(COc2cccc(OCc3n[nH]c(=S)n3N)c2)n[nH]c1=S | > 100 µM | > 100 µM | > 100 µM | > 100 µM | > 100 µM | – | > 100 µM | > 100 µM | > 100 µM | > 100 µM | – | – | – | – | – | – | – | – | –
16 | Cc1c(Cl)nc(Nc2nc3ccccc3[nH]2)nc1Cl | > 100 µM | > 100 µM | > 100 µM | > 100 µM | 41.6 µM | > 100 µM | – | > 100 µM | > 100 µM | > 100 µM | – | – | – | – | – | – | – | – | –
17 | CN(C)c1ccc(C(=C(c2ccc(N(C)C)cc2)c2ccc(N(C)C)cc2)c2ccc(N(C)C)cc2)cc1 | 33.6 µM | 28 µM | > 100 µM | 44.7 µM | 47.8 µM | 31.8 µM | 2.97 µM | 32.3 µM | 23.7 µM | – | – | – | – | – | – | – | – | – | –

Row | SMILES | TGI [1] | TGI [2] | TGI [3] | TGI [4] | TGI [5] | TGI [6] | TGI [7] | TGI [8] | TGI [9] | TGI [10] | GI50 [1] | GI50 [2] | GI50 [3] | GI50 [4] | GI50 [5] | GI50 [6] | GI50 [7] | GI50 [8] | GI50 [10]
18 | CC(O)c1cc2c(s1)C(=O)c1sccc1C2=O (stereo unspecified) | – | – | 0.368 µM | 0.616 µM | 0.593 µM | 0.0362 µM | – | 0.268 µM | 0.538 µM | 1.43 µM | – | – | – | – | – | – | – | – | –
19 | NC(CCCC(N)P(=O)(O)c1ccccc1)P(=O)(O)c1ccccc1 (stereo unspecified) | > 261 µM | > 261 µM | – | > 261 µM | > 261 µM | – | > 261 µM | > 261 µM | > 261 µM | – | – | – | – | – | – | – | – | – | –
20 | O=C1CC2(c3ccccc3)ON=C(c3ccccc3)N2c2ccccc2N1 (stereo unspecified) | > 100 µM | > 100 µM | > 100 µM | > 100 µM | > 100 µM | – | > 100 µM | > 100 µM | > 100 µM | > 100 µM | – | – | – | – | – | – | – | – | –
21 | Cc1cccc2c(=O)c([Se]c3coc4c(C)cccc4c3=O)coc12 | 32.2 µM | 29.9 µM | 34.7 µM | 29.8 µM | 26.8 µM | 32.7 µM | 65.6 µM | 21.3 µM | 31 µM | – | – | – | – | – | – | – | – | – | –
22 | COC(=O)C(Cc1c[nH]c2ccccc12)NC(=O)C(Cc1c[nH]c2ccccc12)NC(=O)C(Cc1c[nH]c2ccccc12)NC(=O)C(Cc1c[nH]c2ccccc12)NC(=O)C(Cc1c[nH]c2ccccc12)NC(=O)C(Cc1c[nH]c2ccccc12)NC(=O)OC(C)(C)C (stereo unspecified) (Boc-WWWWWW-OMe; configuration not given here) | > 100 µM | – | > 100 µM | > 100 µM | – | 70.5 µM | > 100 µM | > 100 µM | > 100 µM | > 100 µM | – | – | – | – | – | – | – | – | –
23 | O=S(=O)(c1ccccc1)n1c2ccc(Br)cc2c2nc3ccccc3nc21 | > 100 µM | – | > 100 µM | > 100 µM | > 100 µM | > 100 µM | > 100 µM | > 100 µM | > 100 µM | > 100 µM | – | – | – | – | – | – | – | – | –
24 | COC(=O)C1C/C(=C/N(C)C)C(=S)N1 (stereo unspecified) | > 100 µM | – | > 100 µM | > 100 µM | > 100 µM | > 100 µM | > 100 µM | 35.4 µM | > 100 µM | > 100 µM | – | – | – | – | – | – | – | – | –
25 | Cc1ccsc1/C=N/Nc1nc2ccccc2s1 | > 100 µM | – | > 100 µM | > 100 µM | 74.6 µM | 47.9 µM | 60.7 µM | – | 24.7 µM | 50.1 µM | – | – | – | – | – | – | – | – | –
26 | O=C(c1ccc(Cl)cc1)c1ccc(OCCCOc2ccc(C(=O)c3ccc(Cl)cc3)cc2)cc1 | > 100 µM | > 100 µM | > 100 µM | > 100 µM | > 100 µM | > 100 µM | > 100 µM | > 100 µM | > 100 µM | – | – | – | – | – | – | – | – | – | –
27 | Oc1ccc(-c2nc(-c3cccnc3)c(-c3ccc(Cl)cc3)[nH]2)cc1O | 23.9 µM | – | 35.3 µM | 30.2 µM | 21.2 µM | 27.6 µM | 14.5 µM | – | > 100 µM | 21.2 µM | – | – | – | – | – | – | – | – | –
28 | O=C1c2ccc(O)cc2C(=O)c2ccc(O)cc21 | > 100 µM | > 100 µM | > 100 µM | > 100 µM | > 100 µM | > 100 µM | > 100 µM | > 100 µM | > 100 µM | – | – | – | – | – | – | – | – | – | –
29 | COc1cc(C2c3cc4c(cc3[C@@H](Nc3ccccc3)C3COC[C@H]23)OCO4)cc(OC)c1O (stereo partly specified) | – | 4.35 µM | 9.83 µM | > 100 µM | 32.5 µM | 68.9 µM | – | 5 µM | 2.3 µM | > 100 µM | – | – | – | – | – | – | – | – | –
30 | C[n+]1c(-c2ccc(/C=N/NC(=N)N/N=C/c3ccc(-c4cn5cc(Cl)ccc5[n+]4C)cc3)cc2)cn2cc(Cl)ccc21 | – | > 100 µM | > 100 µM | > 100 µM | > 100 µM | > 100 µM | – | > 100 µM | > 100 µM | > 100 µM | – | – | – | – | – | – | – | – | –
31 | BrCCCCCOc1ccc(-c2c3ccccc3c(-c3ccc(OCCCCCBr)cc3)c3ccccc23)cc1 | – | > 100 µM | > 100 µM | > 100 µM | > 100 µM | > 100 µM | – | > 100 µM | > 100 µM | > 100 µM | – | – | – | – | – | – | – | – | –
32 | C[C@]12CCC(=O)C=C1CC[C@@H]1[C@@H]2[C@@H](O)C[C@@]2(C)[C@H]1CC[C@]2(O)C(=O)COC(=O)COCC(=O)O | > 100 µM | > 100 µM | > 100 µM | > 100 µM | > 100 µM | > 100 µM | > 100 µM | > 100 µM | > 100 µM | – | – | – | – | – | – | – | – | – | –
33 | CCC(CON(C)c1ccccc1)(SC)SC | > 100 µM | > 100 µM | > 100 µM | > 100 µM | > 100 µM | > 100 µM | – | > 100 µM | > 100 µM | > 100 µM | – | – | – | – | – | – | – | – | –
